The subject of assay [1] is C6. Briefly: Cytotoxicity against rat C6 cells assessed as reduction in cell viability at 5 to 50 uM after 72 hrs by MTT assay. The class given is functional, cell-based.
Assay [2] relates to C6. The assay is described as follows: Cytotoxicity against rat C6 cells assessed as reduction in cell viability at 25 to 50 uM after 72 hrs by MTT assay. The class given is functional, cell-based.
Assay [3] relates to C6. The assay is described as follows: Cytotoxicity against rat C6 cells assessed as reduction in cell viability after 72 hrs by MTT assay. The class given is functional, cell-based. On the technique in general: Tetrazolium dyes change colour on reduction, which living cells bring about.
The subject of assay [4] is C6. Briefly: Cytotoxicity against rat C6 cells assessed as reduction in cell viability at 50 uM after 72 hrs by MTT assay relative to control. The class given is functional.
The subject of assay [5] is U138-MG. Briefly: Cytotoxicity against human U138MG cells assessed as reduction in cell viability at 10 uM relative to control. The class given is functional.
The subject of assay [6] is C6. Briefly: Cytotoxicity against rat C6 cells assessed as reduction in cell viability at 10 uM after 72 hrs by MTT assay relative to control. The class given is functional.
Assay [7] deals with C6. Briefly: Cytotoxicity against rat C6 cells assessed as reduction in cell viability at 5 uM after 72 hrs by MTT assay relative to control. The class given is functional.
Assay [8] relates to U138-MG. The assay is described as follows: Cytotoxicity against human U138MG cells assessed as reduction in cell viability at 150 uM relative to control. The class given is functional.
Assay [9] relates to C6. Briefly: Cytotoxicity against rat C6 cells assessed as reduction in cell viability at 150 uM relative to control. The class given is functional.

Our source for the Activity values is ChEMBL document CHEMBL4190177 (2016).

Molecules are shown by their SMILES. Activity calls are given as the source filed them. The rule behind the calls is not given here.

With `CCOC(=O)C1=C(C)NC2=C(C(=O)CC(C)(C)C2)C1c1ccccc1` (stereo not given), the outcome with C6 [1] was Active. Turning to `CCCCCCCCCCCCCCCCCCOC(=O)C1=C(C)NC2=C(C(=O)CC(C)(C)C2)C1c1cccc([N+](=O)[O-])c1` (stereo not given), the outcome in the assay with C6 [2] was inactive. Also, in the assay on C6 [3], the Activity entry was “Dose-dependent effect”.

With `CCOC(=O)C1=C(C)NC(=S)NC1c1cccc(O)c1` (stereo not given) [MONASTROL], the Activity in the assay on C6 [4] came to 50%. As for `CCCCCCCCCCCCCCCCOC(=O)C1=C(C)NC(=O)NC1c1cccc(O)c1` (stereo not given), the Activity in the assay on U138-MG [5] is recorded as 50%.

Take `CCCCCCCCCCCCCCCCOC(=O)C1=C(C)NC2=C(C(=O)CC(C)(C)C2)C1c1ccccc1` (stereo not given): in the assay on C6 [3], the Activity entry was “Dose-dependent effect”. Same read-out and setting: for `CCCCCCCCCCCCCCCCCCOC(=O)C1=C(C)NC2=C(C(=O)CC(C)(C)C2)C1c1ccc(OC)cc1` (stereo not given) the value was “Dose-dependent effect”. Turning to `CCCCCCCCCCCCCCCCOC(=O)C1=C(C)NC2=C(C(=O)CC(C)(C)C2)C1c1cccc(O)c1` (stereo not given), the Activity entry in the assay with C6 [3] is “Dose-dependent effect”; in the assay with C6 [6], 40%.

As to `CCCCCCCCCCCCCCCCCCOC(=O)C1=C(C)NC2=C(C(=O)CC(C)(C)C2)C1c1cccc(OC)c1` (stereo not given), the result with C6 [2] was inactive. Also, the Activity entry in the assay on C6 [3] is “Dose-dependent effect”. Consider `CCCCCCCCCCCCCCCCCCOC(=O)C1=C(C)NC2=C(C(=O)CC(C)(C)C2)C1c1cccc(O)c1` (stereo not given), for which the figures for the Activity result in the assay with C6 [3] and with C6 [7] were “Dose-dependent effect” and 40%, respectively.

`O=Cc1cccc(O)c1` [3-HYDROXYBENZALDEHYDE]: the Activity with U138-MG [8] and in the assay with C6 [9] was 30% in each case.
